Experiments:
[1] = Cytotoxicity against mouse B16F10 cells assessed as growth inhibition after 72 hrs by MTT assay; type: functional, cell-based; conditions: B16-F10, 72 h
[2] = tested on: HT-29; test: Cytotoxicity against human HT-29 cells assessed as growth inhibition after 72 hrs by MTT assay; type: functional, cell-based; conditions: HT-29, 72 h
[3] = tested on: HepG2; test: Cytotoxicity against human HepG2 cells assessed as growth inhibition after 72 hrs by MTT assay; type: functional, cell-based; conditions: HepG2, 72 h
[4] = tested on: B16-F10; test: Potency index, ratio of maslinic acid IC50 to compound IC50 for mouse B16F10 cells; type: functional
[5] = tested on: HT-29; test: Potency index, ratio of maslinic acid IC50 to compound IC50 for human HT-29 cells; type: functional
[6] = tested on: HepG2; test: Potency index, ratio of maslinic acid IC50 to compound IC50 for human HepG2 cells; type: functional
[7] = Induction of apoptosis in mouse B16F10 cells assessed as live cells at cytotoxic IC50 after 72 hrs by Annexin V-FITC/propidium iodide staining based flow cytometry (reference value: 97.55 +/- 0.5%); type: functional, B16-F10
[8] = Induction of apoptosis in mouse B16F10 cells assessed as early apoptotic cells at cytotoxic IC50 after 72 hrs by Annexin V-FITC/propidium iodide staining based flow cytometry (reference value: 0.75 +/- 0.07%); type: functional, B16-F10
[9] = Induction of apoptosis in mouse B16F10 cells assessed as late apoptotic cells at cytotoxic IC50 after 72 hrs by Annexin V-FITC/propidium iodide staining based flow cytometry (reference value: 0.75 +/- 0.21%); type: functional, B16-F10
[10] = Induction of apoptosis in mouse B16F10 cells assessed as necrotic cells at cytotoxic IC50 after 72 hrs by Annexin V-FITC/propidium iodide staining based flow cytometry (reference value: 0.75 +/- 0.07%); type: functional, B16-F10
[11] = tested on: HT-29; test: Induction of apoptosis in human HT-29 cells assessed as live cells at cytotoxic IC50 after 72 hrs by Annexin V-FITC/propidium iodide staining based flow cytometry (reference value: 96.65 +/- 0.78%); type: functional
[12] = tested on: HT-29; test: Induction of apoptosis in human HT-29 cells assessed as early apoptotic cells at cytotoxic IC50 after 72 hrs by Annexin V-FITC/propidium iodide staining based flow cytometry (reference value: 1.65 +/- 0.07%); type: functional
[13] = tested on: HT-29; test: Induction of apoptosis in human HT-29 cells assessed as late apoptotic cells at cytotoxic IC50 after 72 hrs by Annexin V-FITC/propidium iodide staining based flow cytometry (reference value: 0.65 +/- 0.35%); type: functional
[14] = tested on: HT-29; test: Induction of apoptosis in human HT-29 cells assessed as necrotic cells at cytotoxic IC50 after 72 hrs by Annexin V-FITC/propidium iodide staining based flow cytometry (reference value: 1.05 +/- 0.35%); type: functional
[15] = tested on: HepG2; test: Induction of apoptosis in human HepG2 cells assessed as live cells at cytotoxic IC50 after 72 hrs by Annexin V-FITC/propidium iodide staining based flow cytometry (reference value: 99.55 +/- 0.07%); type: functional
[16] = tested on: HepG2; test: Induction of apoptosis in human HepG2 cells assessed as early apoptotic cells at cytotoxic IC50 after 72 hrs by Annexin V-FITC/propidium iodide staining based flow cytometry (reference value: 0.3 +/- 0.01%); type: functional
[17] = tested on: HepG2; test: Induction of apoptosis in human HepG2 cells assessed as late apoptotic cells at cytotoxic IC50 after 72 hrs by Annexin V-FITC/propidium iodide staining based flow cytometry relative to control; type: functional
[18] = tested on: HepG2; test: Induction of apoptosis in human HepG2 cells assessed as necrotic cells at cytotoxic IC50 after 72 hrs by Annexin V-FITC/propidium iodide staining based flow cytometry (reference value: 0.1 +/- 0.01%); type: functional
[19] = Cell cycle arrest in mouse B16F10 cells assessed as accumulation at G0/G1 phase at cytotoxic IC50 after 72 hrs by propidium iodide staining based flow cytometry (reference value: 50.69 +/- 0.61%); type: functional, B16-F10
[20] = Cell cycle arrest in mouse B16F10 cells assessed as accumulation at S phase at cytotoxic IC50 after 72 hrs by propidium iodide staining based flow cytometry (reference value: 48.31 +/- 0.74%); type: functional, B16-F10
[21] = Cell cycle arrest in mouse B16F10 cells assessed as accumulation at G2/M phase at cytotoxic IC50 after 72 hrs by propidium iodide staining based flow cytometry (reference value: 1.01 +/- 0.13%); type: functional, B16-F10
[22] = tested on: HT-29; test: Cell cycle arrest in human HT-29 cells assessed as accumulation at G0/G1 phase at cytotoxic IC50 after 72 hrs by propidium iodide staining based flow cytometry (reference value: 55.18 +/- 0.22%); type: functional
[23] = tested on: HT-29; test: Cell cycle arrest in human HT-29 cells assessed as accumulation at S phase at cytotoxic IC50 after 72 hrs by propidium iodide staining based flow cytometry (reference value: 48.31 +/- 1.49%); type: functional
[24] = tested on: HT-29; test: Cell cycle arrest in human HT-29 cells assessed as accumulation at G2/M phase at cytotoxic IC50 after 72 hrs by propidium iodide staining based flow cytometry (reference value: 6.23 +/- 1.7%); type: functional
[25] = tested on: HepG2; test: Cell cycle arrest in human HepG2 cells assessed as accumulation at G0/G1 phase at cytotoxic IC50 after 72 hrs by propidium iodide staining based flow cytometry (reference value: 39.41 +/- 1.56%); type: functional
[26] = tested on: HepG2; test: Cell cycle arrest in human HepG2 cells assessed as accumulation at S phase at cytotoxic IC50 after 72 hrs by propidium iodide staining based flow cytometry (reference value: 54.71 +/- 2.37%); type: functional
[27] = tested on: HepG2; test: Cell cycle arrest in human HepG2 cells assessed as accumulation at G2/M phase at cytotoxic IC50 after 72 hrs by propidium iodide staining based flow cytometry (reference value: 8.47 +/- 2.55%); type: functional
[28] = Disruption of mitochondrial membrane potential in mouse B16F10 cells assessed as rhodamine123 positive cells at cytotoxic IC50 after 72 hrs by propidium iodide staining based fluorescence spectroscopic analysis (reference value: 95.6 +/- 0.57%); type: functional, B16-F10
[29] = Disruption of mitochondrial membrane potential in mouse B16F10 cells assessed as rhodamine123 negative cells at cytotoxic IC50 after 72 hrs by propidium iodide staining based fluorescence spectroscopic analysis (reference value: 4.45 +/- 0.64%); type: functional, B16-F10
[30] = tested on: HT-29; test: Disruption of mitochondrial membrane potential in human HT-29 cells assessed as rhodamine123 positive cells at cytotoxic IC50 after 72 hrs by propidium iodide staining based fluorescence spectroscopic analysis (reference value: 94.25 +/- 0.35%); type: functional
[31] = tested on: HT-29; test: Disruption of mitochondrial membrane potential in human HT-29 cells assessed as rhodamine123 negative cells at cytotoxic IC50 after 72 hrs by propidium iodide staining based fluorescence spectroscopic analysis (reference value: 5.8 +/- 0.42%); type: functional
[32] = tested on: HepG2; test: Disruption of mitochondrial membrane potential in human HepG2 cells assessed as rhodamine123 positive cells at cytotoxic IC50 after 72 hrs by propidium iodide staining based fluorescence spectroscopic analysis (reference value: 88.3 +/- 8.87%); type: functional
[33] = tested on: HepG2; test: Disruption of mitochondrial membrane potential in human HepG2 cells assessed as rhodamine123 negative cells at cytotoxic IC50 after 72 hrs by propidium iodide staining based fluorescence spectroscopic analysis (reference value: 11.7 +/- 6.8%); type: functional

## COCCOCCOCC(=O)O[C@@H]1C[C@]2(C)[C@H]3CC=C4[C@@H]5CC(C)(C)CC[C@]5(C(=O)OCc5ccccc5)CC[C@@]4(C)[C@]3(C)CC[C@H]2C(C)(C)[C@H]1OC(=O)COCCOCCOC
[1]
  IC50: 21.1 µM
[2]
  IC50: 31.6 µM
[3]
  IC50: 12.8 µM
[4]
  Ratio IC50: 1.7
[5]
  Ratio IC50: 1
[6]
  Ratio IC50: 7.8
[7]
  Activity: 2.7%
[8]
  Activity: 29.6%
[9]
  Activity: 67.25%
[10]
  Activity: 0.8%
[11]
  Activity: 48.95%
[12]
  Activity: 43.95%
[13]
  Activity: 6.7%
[14]
  Activity: 0.15%
[15]
  Activity: 37%
[16]
  Activity: 18.65%
[17]
  Activity: 44.35%
[18]
  Activity: 0%
[19]
  Activity: 83.03%
[20]
  Activity: 13.13%
[21]
  Activity: 3.85%
[22]
  Activity: 91.87%
[23]
  Activity: 6.63%
[24]
  Activity: 1.51%
[25]
  Activity: 65.2%
[26]
  Activity: 19.76%
[27]
  Activity: 15.04%
[28]
  Activity: 81.35%
[29]
  Activity: 18.6%
[30]
  Activity: 3.15%
[31]
  Activity: 96.9%
[32]
  Activity: 45.7%
[33]
  Activity: 54.25%

From ChEMBL document CHEMBL3822440, “Semi-synthesis and antiproliferative evaluation of PEGylated pentacyclic triterpenes” (Eur J Med Chem, 2016)
